Test [1] concerns the target wtCaM (Homo sapiens, UniProt P0DP23). Kind of test: Binding capacity of metal ions to wtCaM monitored by MspA nanopore trapping.
Test [2] has as its system M2 MspA. The arrangement: species or system Mycobacterium smegmatis. The conditions noted are these: for mean dwell time (τoff), mean ± std / mean interevent duration time (τon), mean ± std: N=3.
Setting [3] is: […] KCl/1.0M CaCl2, +100 mV, listed as LYSOZYME
Setting [4] is: […] KCl/[…] KCl, +100 mV, listed as LYSOZYME
Setting [5] is: […] KCl/[…] KCl, +100 mV, listed as APO-MYOGLOBIN

“And” between values parts separate entries of the source, which are not always exact repeats. Identical values can stand only once. Like-named read-outs stand apart in the source and are kept apart here.

`[Ba+2]` [Ba^2+]: in test [1], the “Proportion of Apo-wtCaM events” value worked out at 95.6 ± 2.9%; the “Proportion of Holo-wtCaM events (binding capacity)” value (“Proportion of Holo-wtCaM events” below) was 4.4% and 4.4 ± 2.9%; the “binding capacity to wtCaM, in words” value is reported as “poor binding capacity”; the “ΔI/I0 of Apo-wtCaM events” value worked out at 51.6 ± 0.6%. Moreover, the “ΔI/I0 of Holo-wtCaM events” value in test [1] is listed as 86.9 ± 1.0%.

As to `[Ca+2]` [Ca^2+], in test [1] (0.3 μM wtCaM), the “ion concentration that fully activates wtCaM” value was determined as 0.6 mM. Moreover, in test [1] (2 mM ion, 0.6 μM wtCaM), the “Proportion of Apo-wtCaM events” value stood at 21.2 ± 3.1%; the “Proportion of Holo-wtCaM events” value was 54% and 54.1 ± 4.8%; the “Proportion of Transient States events” value turned out to be 24.8 ± 2.7%; the “ΔI/I0 of Apo-wtCaM events” value worked out at 56.8±1.1%. In addition, in test [1] (2 mM ion, 0.6 μM wtCaM), the “ΔI/I0 of Holo-wtCaM events” value came out at 90.4±0.2% and the “ΔI/I0 of Transient States events” value is reported as 75.0±2.1%. Also, the “binding capacity to wtCaM, in words” value in test [1] (nanopore trapping) is “strong binding affinity”.

With `[Mg+2]` [Mg^2+], in test [1] (2 mM ion, 0.6 μM wtCaM), the “Proportion of Apo-wtCaM events” value was 96.0 ± 1.7%; the “Proportion of Holo-wtCaM events” value is 4.0% and 4.0 ± 1.7%; the “ΔI/I0 of Apo-wtCaM events” value is reported as 52.6 ± 0.4%; the “ΔI/I0 of Holo-wtCaM events” value came out at 88.8 ± 1.1%. Besides, the “binding capacity to wtCaM, in words” value in test [1] (nanopore trapping) is given as “poor binding capacity”.

With `[Pb+2]` [Pb^2+], in test [1], the “Proportion of Holo-wtCaM events” value came to 62.0±3.1%; the “Proportion of Transient States events” value came to 38.0 ± 3.1%; the “binding capacity to wtCaM, in words” value is recorded as “even stronger than that of Ca^2+”; the “ΔI/I0 of Holo-wtCaM events” value turned out to be 90.6 ± 0.7%. For the same molecule, in test [1], the “ΔI/I0 of Transient States events” value is 77.91 ± 0.13%.

As to `[Sr+2]` [Sr^2+], in test [1] (2 mM ion, 0.6 μM wtCaM), the “Proportion of Apo-wtCaM events” value is reported as 73.1 ± 1.4%, the “Proportion of Holo-wtCaM events” value was found to be 14.0±2.4%, the “Proportion of Transient States events” value amounted to 12.6 ± 0.4% and the “ΔI/I0 of Apo-wtCaM events” value amounted to 54.0 ± 0.5%. For the same molecule, in test [1] (2 mM ion, 0.6 μM wtCaM), the “ΔI/I0 of Holo-wtCaM events” value stood at 90.22 ± 0.16% and the “ΔI/I0 of Transient States events” value worked out at 75.7 ± 1.5%. Besides, the “binding capacity to wtCaM, in words” value in test [1] (nanopore trapping) was “slightly better binding capacity to wtCaM than that of Mg^2+ or Ba^2+”.

Consider `[Tb+3]` [Tb^3+], for which the “ion concentration that fully activates apo-wtCaM” value in test [1] (0.3 μM apo-wtCaM) is 5 µM. Besides, in test [1] (0.3 μM wtCaM), the “concentration regime in which Tb-wtCaM events were observed” value is 0.05 to 120 µM, the “concentration regime in which the pre-aggregated state was observed” value lay in the range of 15 to 200 µM and the “ion concentration with complete disappearance of events (aggregation of wtCaM)” value stood at 500 µM. The “binding capacity to wtCaM, in words” value in test [1] (nanopore trapping) is “stronger than that of Ca^2+”.

Turning to “lysozyme: lysozyme from chicken egg white, representative basic protein”, the 1/τon result was “(1.0 ± 0.2) × 10^−2 MS^−1” in test [2] (+60 mV, […] KCl/1.0M CaCl2); “(1.4 ± 0.4) × 10^−2 MS^−1” in test [2] (+80 mV, […] KCl/1.0M CaCl2); “(1.8 ± 0.2) × 10^−2 MS^−1” in test [2] (+100 mV, […] KCl/1.0M CaCl2); “(1.8 ± 0.3) × 10^−2 MS^−1” in test [2] (+120 mV, […] KCl/1.0M CaCl2); “(6.4 ± 2.6) × 10^−3 MS^−1” in test [2] (concentration 0.21 (MM), +100 mV); “(2.8 ± 0.8) × 10^−2 MS^−1” in test [2] (concentration 0.42 (MM), +100 mV). In addition, the 1/τon entry in test [2] (concentration 0.63 (MM), +100 mV) is given as “(4.2 ± 1.2) × 10^−2 MS^−1”; in test [2] (concentration 0.83 (MM), +100 mV), “(5.5 ± 0.7) × 10^−2 MS^−1”. Also, the τoff in test [2] (+60 mV, […] KCl/1.0M CaCl2) is listed as 35.5 ± 0.9 MS; in test [2] (+80 mV, […] KCl/1.0M CaCl2) it was 47.8 ± 6.7 MS; in test [2] (+100 mV, […] KCl/1.0M CaCl2) it was 47.3 ± 3.5 MS; in test [2] (+120 mV, […] KCl/1.0M CaCl2), 38.8 ± 8.9 MS. Also, the “mean dwell time (τoff), mean ± std” value is 47.3±3.5 MS in test [2] ([…] KCl/1.0M CaCl2, +100 mV); 47.3 ± 3.5 MS in test [2] (setting [3]); 5.4±0.2 MS in test [2] ([…] KCl/[…] KCl, +100 mV); 5.4 ± 0.2 MS in test [2] (setting [4]). The “mean interevent duration time (τon), mean ± std” value was 38.0±11.0 MS in test [2] ([…] KCl/1.0M CaCl2, +100 mV); 38.0 ± 11.0 MS in test [2] (setting [3]); 460.7±51.2 MS in test [2] ([…] KCl/[…] KCl, +100 mV); 460.7 ± 51.2 MS in test [2] (setting [4]).

B1: apo-myoglobin: heme-free myoglobin from equine skeletal muscle (protein, UniProt P68082 2-154, looked up)
Myoglobin: GLSDGEWQQVLNVWGKVEADIAGHGQEVLIRLFTGHPETLEKFDKFKHLKTEAEMKASEDLKKHGTVVLTALGGILKKKGHHEAELKPLAQSHATKHKIPIKYLEFISDAIIHVLHSKHPGDFGADAQGAMTKALELFRNDIAAKYKELGFQG
modifications: heme-free apo form
notes: heme-free myoglobin from equine skeletal muscle
For B1, the 1/τon entry is given as “(1.0 ± 0.3) × 10^−3 MS^−1” in test [2] (+60 mV, […] KCl/1.0M CaCl2); “(2.0 ± 0.5) × 10^−3 MS^−1” in test [2] (+80 mV, […] KCl/1.0M CaCl2); “(2.8 ± 0.3) × 10^−3 MS^−1” in test [2] (+100 mV, […] KCl/1.0M CaCl2); “(4.5 ± 0.6) × 10^−3 MS^−1” in test [2] (+120 mV, […] KCl/1.0M CaCl2); “(4.4 ± 0.5) × 10^−4 MS^−1” in test [2] (concentration 0.04 (MM), +100 mV); “(9.9 ± 0.9) × 10^−3 MS^−1” in test [2] (concentration 0.07 (MM), +100 mV). Moreover, the 1/τon entry is “(2.1 ± 0.2) × 10^−3 MS^−1” in test [2] (concentration 0.11 (MM), +100 mV) and “(2.8 ± 0.2) × 10^−3 MS^−1” in test [2] (concentration 0.14 (MM), +100 mV). The τoff is reported as 99.3 ± 20.2 MS in test [2] (+60 mV, […] KCl/1.0M CaCl2); 317.5 ± 18.3 MS in test [2] (+80 mV, […] KCl/1.0M CaCl2); 531.0 ± 27.5 MS in test [2] (+100 mV, […] KCl/1.0M CaCl2); 522.0 ± 15.0 MS in test [2] (+120 mV, […] KCl/1.0M CaCl2). In addition, the “mean dwell time (τoff), mean ± std” value in test [2] ([…] KCl/1.0M CaCl2, +100 mV) was found to be 531.0±27.5 MS; in test [2] ([…] KCl/1.0M CaCl2, +100 mV, listed as APO-MYOGLOBIN), 531.0 ± 27.5 MS; in test [2] ([…] KCl/[…] KCl, +100 mV), 7.3±1.3 MS; in test [2] (setting [5]), 7.3 ± 1.3 MS. The “mean interevent duration time (τon), mean ± std” value was determined as 365.1 ± 27.9 MS in test [2] ([…] KCl/1.0M CaCl2, +100 mV) and 3640.4 ± 633.6 MS in test [2] (setting [5]).

Source of the values: US12613234B2, “Structural-profiling of analytes by nanopore trapping” (NANJING UNIVERSITY, priority 2021, dated 2026).
